# Values joined by “and” are separate entries in the source; they are usually repeats but may differ in a detail not shown here. Equal values may be shown once. “Also recorded” adds a separate entry of the source.
# Experiments:
# in vitro = details: human
# TBEV Neudoerfl strain [1] = type: cell-based, tick-borne encephalitis virus
# TBEV Neudoerfl strain [2] = experiment: microbe, parasite or virus in culture; type: cell-based, tick-borne encephalitis virus; details: for IC50: Tick-borne encephalitis virus, A549, 72 h, read-out: IC50 (concentration to reduce infectious viral titers by 50%)
# TBEV Hypr strain = type: cell-based, tick-borne encephalitis virus
# TBEV E protein = type: cell-based, tick-borne encephalitis virus
SMILES,CC50 (in vitro) [µM],Inhibition of TBEV propagation (size and number of plaques) (TBEV Neudoerfl strain [1]),Reduction in the number of plaques (TBEV Neudoerfl strain [1]),Effect on TBEV titers in dose-response assay (TBEV Neudoerfl strain [2]),Reduction in viral titer (TBEV Neudoerfl strain [2]),SI (selectivity index: CC50/IC50) (TBEV Neudoerfl strain [2]),IC50 (TBEV Neudoerfl strain [2]) [µM],TBEV-induced cytopathic effect / rate of cell death (TBEV Hypr strain),Production of TBEV E protein (Western blot) (TBEV E protein),Plaques detected in dose-response plaque reduction assay (TBEV Neudoerfl strain [1]),Virus detected in culture supernatant (viral titer) (TBEV Neudoerfl strain [2]),melting point [°C]
CC(=O)OC[C@H]1O[C@@H](NC(=O)[C@H]2O[C@@H](n3ccc(=O)[nH]c3=O)[C@@H]3OC(C)(C)O[C@@H]32)[C@H](OC(C)=O)[C@@H](OC(C)=O)[C@@H]1OC(C)=O [Compound 13],129,–,–,–,–,–,–,–,–,–,–,–
CC(=O)OC[C@H]1O[C@@H](NC(=O)[C@H]2O[C@@H](n3ccc(=O)[nH]c3=O)[C@@H]3OC(C)(C)O[C@@H]32)[C@H](OC(C)=O)[C@@H](OC(C)=O)[C@H]1OC(C)=O [Compound 14],114,–,–,–,–,–,–,–,–,–,–,–
"CC1(C)O[C@@H]2[C@H](O1)[C@@H](C(=O)N[C@@H]1O[C@H](COCc3ccccc3)[C@@H](OCc3ccccc3)[C@H](OCc3ccccc3)[C@H]1OCc1ccccc1)O[C@H]2n1ccc(=O)[nH]c1=O [Compound 15, N-(2″,3″,4″,6″-tetra-O-benzyl-β-D-galactopyranosyl)-2′,3′-O-isopropylidene-uridine-5′-amide]",153,–,–,–,–,–,–,–,–,–,–,–
CC(=O)OC[C@H]1O[C@@H](n2cc(CNC(=O)[C@H]3O[C@@H](n4ccc(=O)[nH]c4=O)[C@@H]4OC(C)(C)O[C@@H]43)nn2)[C@H](OC(C)=O)[C@@H](OC(C)=O)[C@@H]1OC(C)=O [Compound 16],136,–,–,–,–,–,–,–,–,–,–,–
CC(=O)OC[C@H]1O[C@@H](n2cc(CNC(=O)[C@H]3O[C@@H](n4ccc(=O)[nH]c4=O)[C@@H]4OC(C)(C)O[C@@H]43)nn2)[C@H](OC(C)=O)[C@@H](OC(C)=O)[C@H]1OC(C)=O [Compound 17],137,–,–,–,–,–,–,–,–,–,–,–
"CC(=O)OC[C@H]1O[C@@H](n2cc(CNC(=O)[C@H]3O[C@@H](n4ccc(=O)[nH]c4=O)[C@H](O[Si](C)(C)C(C)(C)C)[C@@H]3O[Si](C)(C)C(C)(C)C)nn2)[C@H](OC(C)=O)[C@@H](OC(C)=O)[C@@H]1OC(C)=O [Compound 18, 1-(2″,3″,4″,6″-tetra-O-acetyl-β-D-glucopyranosyl)-4-(2′,3′-di-O-tert-butyldimethylsilyl-uridine-5′-carbonylaminomethyl)-[1,2,3]-triazole]",69,effectively inhibited virus propagation,98%,significantly reduced TBEV titers in a dose-dependent manner,10^3–10^6 fold,7.4,9.3,strongly reduced; also recorded: significantly increased cell survival,dose-dependent reduction,–,–,–
"CC(=O)OC[C@H]1O[C@@H](n2cc(CNC(=O)[C@H]3O[C@@H](n4ccc(=O)[nH]c4=O)[C@H](O[Si](C)(C)C(C)(C)C)[C@@H]3O[Si](C)(C)C(C)(C)C)nn2)[C@H](OC(C)=O)[C@@H](OC(C)=O)[C@H]1OC(C)=O [Compound 19, 1-(2″,3″,4″,6″-tetra-O-acetyl-β-D-galactopyranosyl)-4-(2′,3′-di-O-tert-butyldimethylsilyl-uridine-5′-carbonylaminomethyl)-[1,2,3]-triazole]",77,effectively inhibited virus propagation,81%,significantly reduced TBEV titers in a dose-dependent manner,10^3–10^6 fold,5.1,15.1,strongly reduced; also recorded: significantly increased cell survival,dose-dependent reduction,–,–,–
"CC(=O)OC[C@H]1O[C@@H](n2cc(COC[C@H]3O[C@@H](n4ccc(=O)[nH]c4=O)[C@H](O[Si](C)(C)C(C)(C)C)[C@@H]3O[Si](C)(C)C(C)(C)C)nn2)[C@H](OC(C)=O)[C@@H](OC(C)=O)[C@@H]1OC(C)=O [Compound 20, 1-(2″,3″,4″,6″-tetra-O-acetyl-β-D-glucopyranosyl)-4-(2′,3′-di-O-tert-butyldimethylsilyl-uridine-5′-O-methyl)-[1,2,3]-triazole]",184,nearly a complete inhibition of TBEV propagation,96% and 75%,significantly reduced TBEV titers in a dose-dependent manner,10^3 fold,49.7,3.7,nearly completely inhibited; also recorded: significantly increased cell survival,complete inhibition of viral protein synthesis,no plaques were detected,no virus was detected,–
"CC(=O)OC[C@H]1O[C@@H](n2cc(COC[C@H]3O[C@@H](n4ccc(=O)[nH]c4=O)[C@H](O[Si](C)(C)C(C)(C)C)[C@@H]3O[Si](C)(C)C(C)(C)C)nn2)[C@H](OC(C)=O)[C@@H](OC(C)=O)[C@H]1OC(C)=O [Compound 21, 1-(2″,3″,4″,6″-tetra-O-acetyl-β-D-galactopyranosyl)-4-(2′,3′-di-O-tert-butyldimethylsilyl-uridine-5′-O-methyl)-[1,2,3]-triazole]",116,nearly a complete inhibition of TBEV propagation,92% and 62%,significantly reduced TBEV titers in a dose-dependent manner,10^4 fold,24.7,4.7,nearly completely inhibited; also recorded: significantly increased cell survival,dose-dependent reduction; also recorded: greatly decreased at all tested concentrations,no plaques were detected,no virus was detected,–
"CC(=O)OC[C@H]1O[C@@H](OCc2cn(C[C@H]3O[C@@H](n4ccc(=O)[nH]c4=O)[C@@H]4OC(C)(C)O[C@@H]43)nn2)[C@H](OC(C)=O)[C@@H](OC(C)=O)[C@@H]1OC(C)=O [Compound 22, 2′,3′-O-isopropylidene-5′-deoxy-5′-[4-(2″,3″,4″,6″-tetra-O-acetyl-β-D-glucopyranosyl-oxymethyl)-1,2-3-triazol-1-yl]uridine]",173,–,–,–,–,–,–,–,–,–,–,108 to 110
"CC(=O)OC[C@H]1O[C@@H](OCc2cn(C[C@H]3O[C@@H](n4ccc(=O)[nH]c4=O)[C@@H]4OC(C)(C)O[C@@H]43)nn2)[C@H](OC(C)=O)[C@@H](OC(C)=O)[C@H]1OC(C)=O [Compound 23, 2′,3′-O-isopropylidene-5′-deoxy-5′-[4-(2″,3″,4″,6″-tetra-O-acetyl-β-D-galactopyranosyl-oxymethyl)-1,2-3-triazol-1-yl]uridine]",157,–,–,–,–,–,–,–,–,–,–,101 to 105

# — PMC7764612 (Pharmaceuticals, 2020)
